Measurements reported in patent publication US7368578B2, “Five-membered heterocyclic compounds” (Takeda Pharmaceutical Company Limited, priority 2002, dated 2008).

How the values were obtained:
human PPARγ1 = biological target: T1, human PPARγ1 (Homo sapiens, UniProt P37231); assay: Human PPARγ1 antagonist assay (luciferase reporter in PPARγ:RXRα:4ERPP/CHO-K1 cells); type: cell-based; details: 10 nM compound A as stimulant, luciferase activity, 24 hrs, read-out: Inhibitory rate (%); for inhibition at 1 µM: test compound 10^−6 M
T1 construct: expressed in transfected cells; host or cells: CHO-K1 cells stably transfected with pVgRXR2-hPPARγ and reporter plasmid pGL3-4ERPP-TK neo
T1 sequence (P37231 1-477 isoform P37231-2): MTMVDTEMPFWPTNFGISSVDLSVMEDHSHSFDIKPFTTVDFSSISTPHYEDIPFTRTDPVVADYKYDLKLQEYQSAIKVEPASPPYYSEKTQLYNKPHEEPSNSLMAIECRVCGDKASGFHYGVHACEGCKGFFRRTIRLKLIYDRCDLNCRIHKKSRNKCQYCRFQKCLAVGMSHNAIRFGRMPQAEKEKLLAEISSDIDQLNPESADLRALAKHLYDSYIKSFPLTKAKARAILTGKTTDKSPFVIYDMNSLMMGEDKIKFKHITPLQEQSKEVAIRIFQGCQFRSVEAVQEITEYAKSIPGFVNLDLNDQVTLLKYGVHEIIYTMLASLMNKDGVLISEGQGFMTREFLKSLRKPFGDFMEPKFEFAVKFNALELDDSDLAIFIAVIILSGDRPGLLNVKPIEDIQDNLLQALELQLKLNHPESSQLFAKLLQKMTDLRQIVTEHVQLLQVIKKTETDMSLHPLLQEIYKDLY
T1 sequence (P19793 1-462 partner): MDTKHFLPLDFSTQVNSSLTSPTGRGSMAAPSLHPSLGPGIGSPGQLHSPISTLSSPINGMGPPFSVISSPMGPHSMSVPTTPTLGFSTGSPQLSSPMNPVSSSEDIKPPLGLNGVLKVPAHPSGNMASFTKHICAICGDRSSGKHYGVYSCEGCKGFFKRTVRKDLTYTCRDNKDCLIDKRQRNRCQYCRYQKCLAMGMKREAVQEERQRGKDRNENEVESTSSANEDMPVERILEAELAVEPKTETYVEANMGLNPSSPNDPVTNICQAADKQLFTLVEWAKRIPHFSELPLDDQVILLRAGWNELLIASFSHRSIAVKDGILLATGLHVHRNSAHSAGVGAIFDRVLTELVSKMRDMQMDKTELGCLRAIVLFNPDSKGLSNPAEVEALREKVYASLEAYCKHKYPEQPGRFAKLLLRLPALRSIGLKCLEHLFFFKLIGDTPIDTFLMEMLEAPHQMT
Method: PPARγ:RXRα:4ERPP/CHO-K1 cells (obtained in Reference Example 5a) cultured in Ham's F-12 medium (GIBCO, Inc.) supplemented with 10% fetal bovine serum (TRACE SCIENTIFIC, Ltd.) were seeded in a well of a 96 well white plate at 2×10^4 cells/well and cultured under 37° C. 5% CO2 conditions for 24 hrs. After removal of the medium, Ham's F-12 medium (GIBCO) containing 60 μl of 0.1% BSA (not containing fatty acid) (Wako Pure Chemical Industries, Ltd.), 20 μl of 10^−5M or 10^−6 M test compound and 20 μl of compound A having a final concentration of 10 nM as a stimulant were added, and the cells were cultured under 37° C. 5% CO2 conditions for 24 hrs. After removal of the medium, 40 μl of Pickagene LT7.5 (Wako Pure Chemical Industries, Ltd.) 2-fold diluted with HBSS (HANKS' BALANCED SALT SOLUTION) (BIO WHITTAKER Inc.) was added. After stirring, luciferase activity was measured using 1420 ARVO Multilabel Counter (Wallac, Inc.). In addition, a test similar to the above was conducted for the non-use of the aforementioned test compound alone and for the non-use of the aforementioned test compound and compound A to determine the luciferase activity.
The human PPARγ1 antagonistic activity of the test compound was evaluated using percentages (% inhibition) wherein the luciferase activity when 10 nM compound A alone was added was 0%, and the luciferase activity when the test compound and compound A were not added was 100%. The concentration of the test compound was 10^−5 M for the compounds of Example 42 and 315 and 10^−6 M for other test compounds.
After a CHO-K1 cell cultured in a cell culture flask (150 cm^2) (produced by Corning Costar Corporation, USA) containing Ham's F-12 medium (produced by Life Technologies, Inc., USA) supplemented with 10% fetal bovine serum (produced by Life Technologies, Inc., USA) was detached by treating with 0.5 g/L trypsin-0.2 g/L EDTA (ethylenediaminetetraacetic acid) (produced by Life Technologies, Inc., USA), the cell was washed with PBS (phosphate-buffered saline) (produced by Life Technologies, Inc., USA), centrifuged (1000 rpm, 5 minutes), and then suspended in PBS. Subsequently, the DNA was introduced into the cells under the conditions shown below using GENE PULSER (produced by Bio-Rad Laboratories, USA).
Namely, to a cuvette having a 0.4 cm gap, added were 8×10^6 cells and 10 μg of plasmid pVgRXR2-hPPARγ obtained in Reference Example 4a and 10 μg of reporter plasmid pGL3-4ERPP-TK neo obtained in Reference Example 2a, which was subjected to electroporation at the voltage of 0.25 kV under the capacitance of 960 μF. Subsequently, the cell was transferred into a Ham's F-12 medium containing 10% fetal bovine serum and cultured for 24 hours and then the cells were detached again and centrifuged, and then suspended in HAM F12 medium containing 10% fetal bovine serum supplemented with 500 μg/ml of GENETICIN (produced by Life Technologies, Inc., USA) and 250 μg/ml of ZEOCIN (produced by Invitrogen, USA). The obtained suspension was diluted to the density of 10^4 cells/ml and inoculated to a 96-well plate (produced by Corning Costar Corporation, USA), which was cultured in a CO2 gas incubator at 37° C., whereby obtaining a GENETICIN- and ZEOCIN-resistant transformant. Subsequently, after the transformant cell line thus obtained was cultured in a 24-well plate (produced by Corning Costar Corporation, USA), selected was a cell line in which the luciferase was expressed and induced, i.e., PPARγ:RXRα:4ERPP/CHO-K1 cell by the addition of 10 μM pioglitazone hydrochloride.

melting point | inhibition at 10 µM (human PPARγ1; test compound 10^−5 M) | inhibition at 1 µM (human PPARγ1) | Structure (SMILES)
150 to 151 °C |  | 62% | CCOC(=O)c1cn(-c2ccccc2)nc1OCc1ccc(OCc2nc(-c3ccco3)oc2C)c(OC)c1 [Example 72, ethyl 3-[(4-{[2-(2-furyl)-5-methyl-1,3-oxazol-4-yl]methoxy}-3-methoxybenzyl)oxy]-1-phenyl-1H-pyrazole-4-carboxylate]
 |  | 70% | COc1cc(COc2nn(-c3ccccc3)cc2CO)ccc1OCc1nc(-c2ccco2)oc1C [Example 75, {3-[(4-{[2-(2-furyl)-5-methyl-1,3-oxazol-4-yl]methoxy}-3-methoxybenzyl)oxy]-1-phenyl-1H-pyrazol-4-yl}methanol]
137 to 138 °C |  | 63% | COc1cc(COc2nn(-c3ccccc3)cc2C=O)ccc1OCc1nc(-c2ccco2)oc1C [Example 76, 3-[(4-{[2-(2-furyl)-5-methyl-1,3-oxazol-4-yl]methoxy}-3-methoxybenzyl)oxy]-1-phenyl-1H-pyrazole-4-carbaldehyde]
167 to 168 °C |  | 51% | COc1cc(COc2nn(-c3ccccc3)cc2C#N)ccc1OCc1nc(-c2ccco2)oc1C [Example 77, 3-[(4-{[2-(2-furyl)-5-methyl-1,3-oxazol-4-yl]methoxy)-3-methoxybenzyl)oxy]-1-phenyl-1H-pyrazole-4-carbonitrile]
 |  | 103% | COc1cc(COc2nn(-c3ccccc3)cc2/C=C/c2csc(C)n2)ccc1OCc1nc(-c2ccc(CC(=O)O)cc2)oc1C [Example 357, {4-[4-({2-methoxy-4-[({4-[(E)-2-(2-methyl-1,3-thiazol-4-yl)ethenyl]-1-phenyl-1H-pyrazol-3-yl}oxy)methyl]phenoxy}methyl)-5-methyl-1,3-oxazol-2-yl]phenyl}acetic acid]
 |  | 108% | CCc1nc(/C=C/c2cn(-c3ccccc3)nc2OCc2ccc(OCc3nc(-c4ccc(CC(=O)O)cc4)oc3C)c(OC)c2)co1 [Example 369, {4-[4-({4-[({4-[(E)-2-(2-ethyl-1,3-oxazol-4-yl)ethenyl]-1-phenyl-1H-pyrazol-3-yl}oxy)methyl]-2-methoxyphenoxy}methyl)-5-methyl-1,3-oxazol-2-yl]phenyl}acetic acid]

More lines, now with the values behind:

Structure (SMILES) | melting point | inhibition at 10 µM (human PPARγ1; test compound 10^−5 M) | inhibition at 1 µM (human PPARγ1)
Cc1oc(-c2ccco2)nc1COc1ccc(COc2nn(Cc3ccccc3)cc2C=O)cn1 [Example 42, 1-benzyl-3-[(6-{[2-(2-furyl)-5-methyl-1,3-oxazol-4-yl]methoxy}-3-pyridinyl)methoxy]-1H-pyrazole-4-carbaldehyde] | 104 to 105 °C | 50% | 
CCOP(=O)(CCc1cn(-c2ccccc2)nc1OCc1ccc(OCc2nc(-c3ccco3)oc2C)c(OC)c1)OCC [Example 100, diethyl 2-{3-[(4-{[2-(2-furyl)-5-methyl-1,3-oxazol-4-yl]methoxy}-3-methoxybenzyl)oxy]-1-phenyl-1H-pyrazol-4-yl}ethylphosphonate] |  |  | 74%
CCOP(=O)(/C=C/c1cn(-c2ccccc2)nc1OCc1ccc(OCc2nc(-c3ccco3)oc2C)c(OC)c1)OCC [Example 116 (E form), diethyl (E)-2-{3-[(4-{[2-(2-furyl)-5-methyl-1,3-oxazol-4-yl]methoxy}-3-methoxybenzyl)oxy]-1-phenyl-1H-pyrazol-4-yl}ethenylphosphonate] |  |  | 97%
CCOP(=O)(/C=C/c1cn(-c2ccccc2)nc1OCc1ccc(OCc2nc(-c3ccc(CC(=O)O)cc3)oc2C)c(OC)c1)OCC [Example 241, {4-[4-({4-[({4-[(E)-2-(diethoxyphosphoryl)ethenyl]-1-phenyl-1H-pyrazol-3-yl}oxy)methyl]-2-methoxyphenoxy}methyl)-5-methyl-1,3-oxazol-2-yl]phenyl}acetic acid] |  |  | 113%
CCOP(=O)(/C=C/c1cn(-c2ccccc2)nc1OCc1ccc(OCc2nc(-c3cccc(CC(=O)O)c3)oc2C)c(OC)c1)OCC [Example 249, {3-[4-({4-[({4-[(E)-2-(diethoxyphosphoryl)ethenyl]-1-phenyl-1H-pyrazol-3-yl}oxy)methyl]-2-methoxyphenoxy}methyl)-5-methyl-1,3-oxazol-2-yl]phenyl}acetic acid] |  |  | 108%
CCOP(=O)(/C=C/c1cn(-c2ccccc2)nc1OCc1ccc(OCc2nc(-c3cccc(-c4nnn[nH]4)c3)oc2C)c(OC)c1)OCC [Example 336, {(E)-2-(3-{[3-methoxy-4-({5-methyl-2-[3-(1H-tetrazol-5-yl)phenyl]-1,3-oxazol-4-yl}methoxy)benzyl]oxy}-1-phenyl-1H-pyrazol-4-yl)ethenyl}phosphonate diethyl] |  |  | 102%
CCc1nc(/C=C/c2cn(-c3ccccc3)nc2OCc2ccc(OCc3nc(-c4ccc(CC(=O)O)cc4)oc3C)c(OC)c2)cs1 [Example 337, {4-[4-({4-[({4-[(E)-2-(2-ethyl-1,3-thiazol-4-yl)ethenyl]-1-phenyl-1H-pyrazol-3-yl}oxy)methyl]-2-methoxyphenoxy}methyl)-5-methyl-1,3-oxazol-2-yl]phenyl}acetic acid] |  |  | 110%
COc1cc(COc2nn(-c3ccccc3)cc2/C=C/c2csc(C(C)C)n2)ccc1OCc1nc(-c2ccc(CC(=O)O)cc2)oc1C [Example 361, {4-[4-({4-[({4-[(E)-2-(2-isopropyl-1,3-thiazol-4-yl)ethenyl]-1-phenyl-1H-pyrazol-3-yl}oxy)methyl]-2-methoxyphenoxy}methyl)-5-methyl-1,3-oxazol-2-yl]phenyl}acetic acid] |  |  | 110%
COc1cc(COc2nn(-c3ccccc3)cc2/C=C/c2coc(C(C)C)n2)ccc1OCc1nc(-c2ccc(CC(=O)O)cc2)oc1C [Example 370, {4-[4-({4-[({4-[(E)-2-(2-isopropyl-1,3-oxazol-4-yl)ethenyl]-1-phenyl-1H-pyrazol-3-yl}oxy)methyl]-2-methoxyphenoxy}methyl)-5-methyl-1,3-oxazol-2-yl]phenyl}acetic acid] |  |  | 111%
